Patent US5112811A, “SDK peptides and therapeutic compositions containing them” (Societe de Conseils de Recherches et d'Applications …, priority 1989, dated 1992)
Residues, ends and D or L forms follow the SMILES beside them.

Legend:
Jurkat T cells = assay: Rosettes protocol: rosette formation between Jurkat T cells and sheep red blood cells; format: cell-based
Method: Wash three times the red blood cells (RBC) in RPMI 1640 or RBS or Hanks +antibiotic drugs. Centrifuge for 7 minutes at 3000 rpm.
Put the cells sap in suspension. Count. Bring to 2.10^8 RBC/ml in a solution of RPMI at 20 % of Foetal Calf Serum (FCS) (4 ml formerly adsorbed on 1 ml of RBC sap, 30 minutes on an ice-bath, then centrifuge for 7 minutes at 3000 rpm and recover in sterile conditions).
Take an aliquot of Jurkat T cells in culture. Make a viability with Trypan blue.
Then take the volume of cells required for practical work. Wash the cells three times in RPMI 1640 or PBS or Hanks +antibiotic drugs. Centrifuge for 7 minutes at 900 rpm.
Put the cells sap in suspension. Count. Bring to 2.10^6 Jurkat T cells/ml of solution of RPMI at 20 % of adsorbed FCS.
Inhibiting solution =SDK (2.10^-7 mole).
Peptides to be evaluated are dissolved in RPMI 1640 at the appropriate concentration.
Place, in the tube, 200 μl of the inhibiting solution +100 μl of Jurkat T cells […] in RMPI +FCS 20 %; leave 10 minutes on an ice-bath. Add […] in RPMI +FCS 20 %.
Centrifuge for 5 minutes at 500 rpm. Leave overnight at 4° C.
Set the microscope : ocular :×6 objective :×7
Put carefully back in suspension the cells by tapping. Let it rest for a while.
Add, in the tube, 30 μl of Toluidine blue 1 % (to dye the lymphocytes). Tap gently.
Read 3 Malassex hemocytometer per experimental point.

[1] = system: Human peripheral mononuclear cells (MNC) stimulated by 0.1% PHA; assay: Stimulation of T lymphocytes proliferation ([3H]thymidine DNA synthesis in PHA-stimulated MNC); format: cell-based; conditions: for DNA synthesis induced in MNC stimulated by 0.1% PHA: PBL with 0.1% PHA, 3 days; for % stimulation of DNA synthesis in MNC stimulated by 0.1% PHA: versus control (RPMI 1640)
Method: Dilute blood at 1/2 in PBS.
On 15 ml of Ficoll-Hypaque, put 35 ml of dilute blood.
Centrifuge 30 minutes at 1800 rpm, at room temperature.
Take the ring corresponding to mononuclear cells (MNC) back with Pasteur pipette.
Wash twice in PBS (centrifuge for 10 minutes at 1800 rpm).
Bring to 2.10^6 cells/ml with RPMI 1640 "complete" medium +10 % SVF.
PHA-M : Reconstitute a 5 ml bottle lyophylized with 5 ml of "complete" medium. Solution of 100 %. Dilute to obtain a 0.4 % solution.
SDK : Tube […] +4.35 ml "complete" medium. Solution 2.3 10^-4 M.
Then dilute successively 450 μl "medium" +50 μl of dilution.
In 96-well sterilized boxes NUNC :
50 μl of PHA 0.4 % (0.1 % final)
Incubate for 3 days at 37° C. in air/CO* atmosphere 95/5. During the last 24 hours, make a puls of [^3 H] Thymidine : 1 μci/well. Pick up the wells on filters and count with a counter.

[2] = system: B lymphocytes which secrete IgM immunoglobulines; assay: Humoral response in mice to sheep red blood cells (hemolysis plaque technique, Jerne method); format: in vivo, mice of B6D2F1 strain; conditions: 3 μg/kg IP; for Number of P.F.C./10^6 cells: read on day +4; for % stimulation of humoral response: versus saline
Method: 6-to-8 week old mice of B6D2F1 strain are sensitized, on day 0, with 0.2 ml of a sheep red blood cells suspension [10^8 cells ] in a saline solution of Hanks.
The Ser-Asp-Lys and the Pro-Ser-Asp-Lys-Pro peptides (3 μg/kg) were injected in solution physiological serum, by IP route, in 0.2 ml, at the appointed time.
On day +4, animals are killed and the number of B lymphocytes which secrete IgM immunoglobulines are counted by the hemolysis plaque technique (Jerne method).
8 mice / batch. 4 determinations / animal made test : 2 experiments / point.

NCCCC[C@H](NC(=O)[C@H](CC(=O)O)NC(=O)[C@@H](N)CO)C(=O)O [SDK, Ser-Asp-Lys] (H-Ser-Asp-Lys-OH)
% INHIBITION of rosettes (Jurkat T cells; peptide 10^-4 M): -40% | % ROSETTES (Jurkat T cells; peptide 10^-4 M): 38 ± 3% | % INHIBITION of rosettes (Jurkat T cells; peptide 10^-5 M): -28% | % ROSETTES (Jurkat T cells; peptide 10^-5 M): 45 ± 4% | % INHIBITION of rosettes (Jurkat T cells; peptide 10^-6 M): -22% | % ROSETTES (Jurkat T cells; peptide 10^-6 M): 50 ± 2% | % INHIBITION of rosettes (Jurkat T cells; peptide 10^-7 M): -22% | % ROSETTES (Jurkat T cells; peptide 10^-7 M): 49 ± 2% | % INHIBITION of rosettes (Jurkat T cells; peptide 10^-8 M): -36% | % ROSETTES (Jurkat T cells; peptide 10^-8 M): 40 ± 2% | % INHIBITION of rosettes (Jurkat T cells; peptide 10^-9 M): -32% | % ROSETTES (Jurkat T cells; peptide 10^-9 M): 43 ± 1% | % INHIBITION of rosettes (Jurkat T cells; peptide 10^-10 M): -32% | % ROSETTES (Jurkat T cells; peptide 10^-10 M): 43 ± 3% | % INHIBITION of rosettes (Jurkat T cells; peptide 10^-11 M): -36% | % ROSETTES (Jurkat T cells; peptide 10^-11 M): 40 ± 1% | % INHIBITION of rosettes (Jurkat T cells; peptide 10^-12 M): -30% | % ROSETTES (Jurkat T cells; peptide 10^-12 M): 44 ± 3% | % INHIBITION of rosettes (Jurkat T cells; peptide 10^-13 M): -19% | % ROSETTES (Jurkat T cells; peptide 10^-13 M): 51 ± 7% | % INHIBITION of rosettes (Jurkat T cells; peptide 10^-14 M): -14% | % ROSETTES (Jurkat T cells; peptide 10^-14 M): 55 ± 2% | % ROSETTES (Jurkat T cells; peptide 10^-15 M): 63 ± 4% | DNA synthesis induced in MNC stimulated by 0.1% PHA ([1]; peptide 3.10^-5 M): 56 ± 5 cpm × 10^3 /2.10^5 cells | % stimulation of DNA synthesis in MNC stimulated by 0.1% PHA ([1]; peptide 3.10^-5 M): +60% | DNA synthesis induced in MNC stimulated by 0.1% PHA ([1]; peptide 3.10^-10 M): 52 ± 5 cpm × 10^3 /2.10^5 cells | % stimulation of DNA synthesis in MNC stimulated by 0.1% PHA ([1]; peptide 3.10^-10 M): +30% | Number of P.F.C./10^6 cells ([2]; injection at 0 h): 903 ± 133 P.F.C./10^6 cells | % stimulation of humoral response ([2]; injection at 0 h): +97% | Number of P.F.C./10^6 cells ([2]; injection at +24 h): 459 ± 103 P.F.C./10^6 cells | Number of P.F.C./10^6 cells ([2]; injection at +48 h): 673 ± 110 P.F.C./10^6 cells | % stimulation of humoral response ([2]; injection at +48 h): +65% | Number of P.F.C./10^6 cells ([2]; injection at +72 h): 1073 ± 348 P.F.C./10^6 cells | % stimulation of humoral response ([2]; injection at +72 h): +134% | Number of P.F.C./10^6 cells ([2]; injection at -24 h): 644 ± 170 P.F.C./10^6 cells | % stimulation of humoral response ([2]; injection at -24 h): +45%

NCCCC[C@H](NC(=O)[C@H](CC(=O)O)NC(=O)[C@H](CO)NC(=O)[C@@H]1CCCN1)C(=O)N1CCC[C@H]1C(=O)O [PSDKP, Pro-Ser-Asp-Lys-Pro] (H-PSDKP-OH)
% INHIBITION of rosettes (Jurkat T cells; peptide 10^-4 M): -37% | % ROSETTES (Jurkat T cells; peptide 10^-4 M): 37 ± 7% | % INHIBITION of rosettes (Jurkat T cells; peptide 10^-5 M): -44% | % ROSETTES (Jurkat T cells; peptide 10^-5 M): 33 ± 3% | % INHIBITION of rosettes (Jurkat T cells; peptide 10^-6 M): -54% | % ROSETTES (Jurkat T cells; peptide 10^-6 M): 27 ± 5% | % INHIBITION of rosettes (Jurkat T cells; peptide 10^-7 M): -24% | % ROSETTES (Jurkat T cells; peptide 10^-7 M): 45 ± 6% | % INHIBITION of rosettes (Jurkat T cells; peptide 10^-8 M): -19% | % ROSETTES (Jurkat T cells; peptide 10^-8 M): 48 ± 2% | % INHIBITION of rosettes (Jurkat T cells; peptide 10^-9 M): -19% | % ROSETTES (Jurkat T cells; peptide 10^-9 M): 48 ± 4% | % ROSETTES (Jurkat T cells; peptide 10^-10 M): 52 ± 5% | DNA synthesis induced in MNC stimulated by 0.1% PHA ([1]; peptide 3.10^-5 M): 54 ± 4 cpm × 10^3 /2.10^5 cells | % stimulation of DNA synthesis in MNC stimulated by 0.1% PHA ([1]; peptide 3.10^-5 M): +42% | Number of P.F.C./10^6 cells ([2]; injection at 0 h): 915 ± 140 P.F.C./10^6 cells | % stimulation of humoral response ([2]; injection at 0 h): +99% | Number of P.F.C./10^6 cells ([2]; injection at +24 h): 475 ± 82 P.F.C./10^6 cells | Number of P.F.C./10^6 cells ([2]; injection at +48 h): 589 ± 101 P.F.C./10^6 cells | % stimulation of humoral response ([2]; injection at +48 h): +45% | Number of P.F.C./10^6 cells ([2]; injection at +72 h): 543 ± 112 P.F.C./10^6 cells | Number of P.F.C./10^6 cells ([2]; injection at -24 h): 630 ± 142 P.F.C./10^6 cells | % stimulation of humoral response ([2]; injection at -24 h): +42%
